Values after ≈ are worked out from the molar mass of the structure shown. Values joined by “and” are separate entries in the source; they are usually repeats but may differ in a detail not shown here. Identical values can stand only once. Like-named read-outs stand apart in the source and are kept apart here.
Test system: infectious agents (strains tested)
Test: organism not typed
Assay type: cell-based

In the case of `OC(Cn1cncn1)(Cn1cncn1)c1ccc(F)cc1F` [FLZ], the “Geometric Mean MIC” value is reported as 16.450 µg/mL and 19.027 µg/mL, the “Geometric Mean MIC” value (Absidia spp) is reported as 143.675 µg/mL and the “Geometric Mean MIC” value (Apophysomyces spp) is reported as 128.000 µg/mL. For the same compound, the “MIC[90]” value (Apophysomyces spp) was “(128.0) μg/mL”, the “Geometric Mean MIC” value (Aspergillus flavus) was 220.898 µg/mL and the “MIC[90]” value (Aspergillus fumigatus) was 512.0 µg/mL (≈ 1670 µM). The “Geometric Mean MIC” value (Aspergillus nidulans) was 76.109 µg/mL, the “MIC[90]” value (Aspergillus nidulans) was “(32.0-128.0) μg/mL” and the “Geometric Mean MIC” value (Aspergillus niger) was 234.753 µg/mL. For the same compound, the “Geometric Mean MIC” value (Aspergillus sydowii) was 115.933 µg/mL, the “Geometric Mean MIC” value (Aspergillus terreus) was 208.327 µg/mL and the “Geometric Mean MIC” value (Aspergillus ustus) was 172.275 µg/mL. The “Geometric Mean MIC” value (Bipolaris spp) was 64.000 µg/mL, the “MIC[90]” value (Bipolaris spp) was “(64.0) μg/mL” and the “Geometric Mean MIC” value (Bjerkandera adusta) was 4.000 µg/mL. For the same compound, the “MIC[90]” value (Bjerkandera adusta) was 4.0 µg/mL (≈ 13.1 µM), the “Geometric Mean MIC” value (Blastomyces dermatitidis) was 2.191 µg/mL and the “MIC[90]” value (Blastomyces dermatitidis) was 16.0 µg/mL (≈ 52.2 µM). The “Geometric Mean MIC” value (Candida albicans) was 0.415 µg/mL, the “MIC[90]” value (Candida albicans) was 2.0 µg/mL (≈ 6.53 µM) and the “Geometric Mean MIC” value (Candida dubliniensis) was 0.454 µg/mL. The “MIC[90]” value (Candida dubliniensis) was 32.0 µg/mL (≈ 104 µM), the “Geometric Mean MIC” value (Candida famata) was 4.084 µg/mL and the “MIC[90]” value (Candida famata) was 32.0 µg/mL (≈ 104 µM). For the same compound, the “Geometric Mean MIC” value (Candida glabrata) was 9.719 µg/mL, the “MIC[90]” value (Candida glabrata) was 64.0 µg/mL (≈ 209 µM) and the “Geometric Mean MIC” value (Candida guilliermondii) was 4.000 µg/mL. For the same compound, the “MIC[90]” value (Candida guilliermondii) was 32.0 µg/mL (≈ 104 µM), the “Geometric Mean MIC” value (Candida kefyr) was 0.500 µg/mL and the “MIC[90]” value (Candida kefyr) was 4.0 µg/mL (≈ 13.1 µM). For the same compound, the “Geometric Mean MIC” value (Candida krusei) was 32.521 µg/mL, the “MIC[90]” value (Candida krusei) was 64.0 µg/mL (≈ 209 µM) and the “Geometric Mean MIC” value (Candida lusitaniae) was 0.627 µg/mL. The “MIC[90]” value (Candida lusitaniae) was 2.0 µg/mL (≈ 6.53 µM), the “Geometric Mean MIC” value (Candida parapsilosis) was 0.910 µg/mL and the “MIC[90]” value (Candida parapsilosis) was 2.0 µg/mL (≈ 6.53 µM). The “Geometric Mean MIC” value (Candida rugosa) was 3.391 µg/mL, the “MIC[90]” value (Candida rugosa) was 16.0 µg/mL (≈ 52.2 µM) and the “Geometric Mean MIC” value (Candida tropicalis) was 0.961 µg/mL. For the same compound, the “MIC[90]” value (Candida tropicalis) was 4.0 µg/mL (≈ 13.1 µM), the “Geometric Mean MIC” value (Candida zeylanoides) was 0.354 µg/mL and the “MIC[90]” value (Candida zeylanoides) was “(0.125-1.0) μg/mL”. The “Geometric Mean MIC” value (Cryptococcus laurentii) was 5.040 µg/mL, the “MIC[90]” value (Cryptococcus laurentii) was “(4.0-8.0) μg/mL” and the “Geometric Mean MIC” value (Cryptococcus neoformans) was 1.781 µg/mL. The “MIC[90]” value (Cryptococcus neoformans) was 8.0 µg/mL (≈ 26.1 µM), the “Geometric Mean MIC” value (Curvularia spp) was 16.000 µg/mL and the “MIC[90]” value (Curvularia spp) was “(16.0) μg/mL”. The “Geometric Mean MIC” value (Epidermophyton floccosum) was 1.447 µg/mL, the “MIC[90]” value (Epidermophyton floccosum) was 2.0 µg/mL (≈ 6.53 µM) and the “Geometric Mean MIC” value (Exophiala dermatidis) was 8.000 µg/mL. The “MIC[90]” value (Exophiala dermatidis) was “(8.0) μg/mL”, the “Geometric Mean MIC” value (Fonsecae pedrosoi) was 64.000 µg/mL and the “MIC[90]” value (Fonsecae pedrosoi) was “(64.0) μg/mL”. The “Geometric Mean MIC” value (Kluyveromyces marxianus) was 0.500 µg/mL, the “MIC[90]” value (Kluyveromyces marxianus) was “(0.25-1.0) μg/mL” and the “Geometric Mean MIC” value (Microsporum canis) was 2.000 µg/mL. For the same compound, the “MIC[90]” value (Microsporum canis) was 4.0 µg/mL (≈ 13.1 µM), the “Geometric Mean MIC” value (Microsporum gypseum) was 16.000 µg/mL and the “MIC[90]” value (Microsporum gypseum) was “(4.0-128.0) μg/mL”. The “Geometric Mean MIC” value (Microsporum persicolor) was 128.000 µg/mL, the “MIC[90]” value (Microsporum persicolor) was “(128.0) μg/mL” and the “Geometric Mean MIC” value (Mucor spp) was 207.937 µg/mL. The “Geometric Mean MIC” value (Paecilomyces spp) was 141.323 µg/mL, the “Geometric Mean MIC” value (Paracoccidioides brasiliensis) was 0.766 µg/mL and the “MIC[90]” value (Paracoccidioides brasiliensis) was 4.0 µg/mL (≈ 13.1 µM). For the same compound, the “Geometric Mean MIC” value (Penicillium spp) was 220.996 µg/mL, the “Geometric Mean MIC” value (Pichia anomala) was 2.670 µg/mL and the “MIC[90]” value (Pichia anomala) was 4.0 µg/mL (≈ 13.1 µM). For the same compound, the “Geometric Mean MIC” value (Pichia etchel) was 0.125 µg/mL, the “MIC[90]” value (Pichia etchel) was “(0.125) μg/mL” and the “Geometric Mean MIC” value (Pichia ohmeri) was 4.000 µg/mL. For the same compound, the “MIC[90]” value (Pichia ohmeri) was “(4.0) μg/mL”, the “Geometric Mean MIC” value (Pseudallescheria boydii) was 41.237 µg/mL and the “MIC[90]” value (Pseudallescheria boydii) was 128.0 µg/mL (≈ 418 µM). The “Geometric Mean MIC” value (Ramichloridium obovoideum) was 22.627 µg/mL, the “MIC[90]” value (Ramichloridium obovoideum) was “(16.0-32.0) μg/mL” and the “Geometric Mean MIC” value (Rhizopus spp) was 229.461 µg/mL. The “Geometric Mean MIC” value (Saccharomyces cerevisiae) was 2.845 µg/mL, the “MIC[90]” value (Saccharomyces cerevisiae) was 16.0 µg/mL (≈ 52.2 µM) and the “Geometric Mean MIC” value (Scedosporium apiospermum) was 84.449 µg/mL. The “Geometric Mean MIC” value (Trichophyton mentagrophytes) was 9.190 µg/mL, the “MIC[90]” value (Trichophyton mentagrophytes) was 64.0 µg/mL (≈ 209 µM) and the “Geometric Mean MIC” value (Trichophyton raubitschekii) was 128.000 µg/mL. The “MIC[90]” value (Trichophyton raubitschekii) was “(128.0) μg/mL”, the “Geometric Mean MIC” value (Trichophyton rubrum) was 4.407 µg/mL and the “MIC[90]” value (Trichophyton rubrum) was 32.0 µg/mL (≈ 104 µM). The “Geometric Mean MIC” value (Trichophyton soudanense) was 128.000 µg/mL, the “MIC[90]” value (Trichophyton soudanense) was “(128.0) μg/mL” and the “Geometric Mean MIC” value (Trichophyton terrestre) was 1.000 µg/mL. The “MIC[90]” value (Trichophyton terrestre) was “(1.0) μg/mL”, the “Geometric Mean MIC” value (Trichophyton tonsurans) was 3.775 µg/mL and the “MIC[90]” value (Trichophyton tonsurans) was 32.0 µg/mL (≈ 104 µM). The “Geometric Mean MIC” value (Trichosporon spp) was 12.699 µg/mL, the “MIC[90]” value (Trichosporon spp) was “(4.0-64.0) μg/mL” and the “Geometric Mean MIC” value (Yarrowia lipolytica) was 1.741 µg/mL. For the same compound, the “MIC[90]” value (Yarrowia lipolytica) was “(0.125-32.0) μg/mL”.

Source: patent US20090226527A1, “Particulate-stabilized injectable pharmacutical compositions of posaconazole” (priority 2004, published 2009)
